Results from ChEMBL document CHEMBL1201862, “PubChem BioAssay data set” (2004).
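Method: 48-hour compound exposure of cells in 96-well plates, five concentrations, linear interpolation of endpoints. GI50 = concentration required for 50% inhibition of growth.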 Active and inactive are the calls of the source. Cut-off read from the data, not from the text of the source: active = GI50 up to about 1.1 µM and inactive = higher.

How the values were obtained:
Assay in all cases: growth of human tumour cells (NCI), 48 h
786-0 = test system: 786-0
A498 = test system: A498
A549 = test system: A549
ACHN = test system: ACHN
CAKI-1 = test system: CAKI-1
CCRF-CEM = test system: CCRF-CEM
DLD-1 = test system: DLD-1
EKVX = test system: EKVX
HCC 2998 = test system: HCC 2998
HCT-116 = test system: HCT-116
HCT-15 = test system: HCT-15
HL-60 = test system: HL-60
HOP-18 = test system: HOP-18
HOP-62 = test system: HOP-62
HOP-92 = test system: HOP-92
HT-29 = test system: HT-29
IGROV-1 = test system: IGROV-1
K562 = test system: K562
KM-20L2 = test system: KM-20L2
KM12 = test system: KM12
LOX IMVI = test system: LOX IMVI
LXFL 529 = test system: LXFL 529
M14 = test system: M14
M19-MEL = test system: M19-MEL
MOLT-4 = test system: MOLT-4
Malme-3M = test system: Malme-3M
NCI-H226 = test system: NCI-H226
NCI-H23 = test system: NCI-H23
NCI-H460 = test system: NCI-H460
OVCAR-4 = test system: OVCAR-4
OVCAR-8 = test system: OVCAR-8
RXF 631 = test system: RXF 631
SF-268 = test system: SF-268
SF-295 = test system: SF-295
SF-539 = test system: SF-539
SK-MEL-28 = test system: SK-MEL-28
SK-MEL-2 = test system: SK-MEL-2
SK-MEL-5 = test system: SK-MEL-5
SK-OV-3 = test system: SK-OV-3
SN12C = test system: SN12C
SNB-19 = test system: SNB-19
SNB-75 = test system: SNB-75
SNB-78 = test system: SNB-78
SR = test system: SR
SW-620 = test system: SW-620
TK-10 = test system: TK-10
U-251 = test system: U-251
UACC-257 = test system: UACC-257
UACC-62 = test system: UACC-62
UO-31 = test system: UO-31

**Q.** `C/C(=N\NC(=O)CC#N)c1c(O)cc(C)oc1=O` was tested. Which GI50 (786-0) did it give?
**A.** > 100 µM (inactive)

**Q.** What about the GI50 (A498) of the same compound?
**A.** > 100 µM (inactive)

**Q.** What about the GI50 (A549) of the same compound?
**A.** > 100 µM (inactive)

**Q.** What about the GI50 (ACHN) of the same compound?
**A.** > 100 µM (inactive)

**Q.** What about the GI50 (CAKI-1) of the same compound?
**A.** > 100 µM (inactive)

**Q.** What about the GI50 (CCRF-CEM) of the same compound?
**A.** > 100 µM (inactive)

**Q.** And the GI50 (DLD-1)?
**A.** > 100 µM (inactive)

**Q.** What about the GI50 (EKVX) of the same compound?
**A.** > 100 µM (inactive)

**Q.** And the GI50 (HCC 2998)?
**A.** > 100 µM (inactive)

**Q.** And the GI50 (HCT-116)?
**A.** > 100 µM (inactive)

**Q.** And the GI50 (HCT-15)?
**A.** > 100 µM

**Q.** And the GI50 (HL-60)?
**A.** > 100 µM (inactive)

**Q.** And the GI50 (HOP-18)?
**A.** > 100 µM (inactive)

**Q.** What about the GI50 (HOP-62) of the same compound?
**A.** > 100 µM (inactive)

**Q.** What about the GI50 (HOP-92) of the same compound?
**A.** > 100 µM (inactive)

**Q.** What about the GI50 (HT-29) of the same compound?
**A.** > 100 µM (inactive)

**Q.** What about the GI50 (IGROV-1) of the same compound?
**A.** > 100 µM (inactive)

**Q.** What about the GI50 (K562) of the same compound?
**A.** > 100 µM (inactive)

**Q.** What about the GI50 (KM-20L2) of the same compound?
**A.** > 100 µM (inactive)

**Q.** What about the GI50 (KM12) of the same compound?
**A.** > 100 µM (inactive)

**Q.** And the GI50 (LOX IMVI)?
**A.** > 100 µM (inactive)

**Q.** And the GI50 (LXFL 529)?
**A.** > 100 µM (inactive)

**Q.** What about the GI50 (M14) of the same compound?
**A.** > 100 µM (inactive)

**Q.** And the GI50 (M19-MEL)?
**A.** > 100 µM (inactive)

**Q.** What about the GI50 (MOLT-4) of the same compound?
**A.** > 100 µM (inactive)

**Q.** What about the GI50 (Malme-3M) of the same compound?
**A.** > 100 µM (inactive)

**Q.** What about the GI50 (NCI-H226) of the same compound?
**A.** > 100 µM (inactive)

**Q.** What about the GI50 (NCI-H23) of the same compound?
**A.** > 100 µM (inactive)

**Q.** And the GI50 (NCI-H460)?
**A.** > 100 µM (inactive)

**Q.** What about the GI50 (OVCAR-4) of the same compound?
**A.** > 100 µM (inactive)

**Q.** And the GI50 (OVCAR-8)?
**A.** > 100 µM (inactive)

**Q.** What about the GI50 (RXF 631) of the same compound?
**A.** > 100 µM (inactive)

**Q.** And the GI50 (SF-268)?
**A.** > 100 µM (inactive)

**Q.** And the GI50 (SF-295)?
**A.** > 100 µM (inactive)

**Q.** What about the GI50 (SF-539) of the same compound?
**A.** > 100 µM (inactive)

**Q.** And the GI50 (SK-MEL-28)?
**A.** > 100 µM (inactive)

**Q.** And the GI50 (SK-MEL-2)?
**A.** > 100 µM (inactive)

**Q.** What about the GI50 (SK-MEL-5) of the same compound?
**A.** > 100 µM (inactive)

**Q.** What about the GI50 (SK-OV-3) of the same compound?
**A.** > 100 µM (inactive)

**Q.** And the GI50 (SN12C)?
**A.** > 100 µM (inactive)

**Q.** And the GI50 (SNB-19)?
**A.** > 100 µM (inactive)

**Q.** And the GI50 (SNB-75)?
**A.** > 100 µM (inactive)

**Q.** What about the GI50 (SNB-78) of the same compound?
**A.** > 100 µM (inactive)

**Q.** What about the GI50 (SR) of the same compound?
**A.** > 100 µM (inactive)

**Q.** And the GI50 (SW-620)?
**A.** > 100 µM (inactive)

**Q.** What about the GI50 (TK-10) of the same compound?
**A.** > 100 µM (inactive)

**Q.** What about the GI50 (U-251) of the same compound?
**A.** > 100 µM (inactive)

**Q.** And the GI50 (UACC-257)?
**A.** > 100 µM (inactive)

**Q.** And the GI50 (UACC-62)?
**A.** > 100 µM (inactive)

**Q.** And the GI50 (UO-31)?
**A.** > 100 µM (inactive)
